Measured values reported in paper PMC8213057, “Targeting ALK2: An Open Science Approach to Developing Therapeutics for the Treatment of Diffuse Intrinsic Pontine Glioma” (Journal of Medicinal Chemistry, 2020).
Values joined by “and” are separate entries in the source; they are usually repeats but may differ in a detail not shown here. Equal values may be shown once.

Key:
[1] = molecular target: CAMK4 (Homo sapiens, UniProt Q16566); conditions: 1 μM; Run 1, Run 2
[2] = molecular target: T1, JAK3 (Homo sapiens, UniProt P52333); test: biochemical; conditions: read-out: % enzyme activity, 1 μM; Run 1, Run 2
T1 sequence (P52333 1-1124): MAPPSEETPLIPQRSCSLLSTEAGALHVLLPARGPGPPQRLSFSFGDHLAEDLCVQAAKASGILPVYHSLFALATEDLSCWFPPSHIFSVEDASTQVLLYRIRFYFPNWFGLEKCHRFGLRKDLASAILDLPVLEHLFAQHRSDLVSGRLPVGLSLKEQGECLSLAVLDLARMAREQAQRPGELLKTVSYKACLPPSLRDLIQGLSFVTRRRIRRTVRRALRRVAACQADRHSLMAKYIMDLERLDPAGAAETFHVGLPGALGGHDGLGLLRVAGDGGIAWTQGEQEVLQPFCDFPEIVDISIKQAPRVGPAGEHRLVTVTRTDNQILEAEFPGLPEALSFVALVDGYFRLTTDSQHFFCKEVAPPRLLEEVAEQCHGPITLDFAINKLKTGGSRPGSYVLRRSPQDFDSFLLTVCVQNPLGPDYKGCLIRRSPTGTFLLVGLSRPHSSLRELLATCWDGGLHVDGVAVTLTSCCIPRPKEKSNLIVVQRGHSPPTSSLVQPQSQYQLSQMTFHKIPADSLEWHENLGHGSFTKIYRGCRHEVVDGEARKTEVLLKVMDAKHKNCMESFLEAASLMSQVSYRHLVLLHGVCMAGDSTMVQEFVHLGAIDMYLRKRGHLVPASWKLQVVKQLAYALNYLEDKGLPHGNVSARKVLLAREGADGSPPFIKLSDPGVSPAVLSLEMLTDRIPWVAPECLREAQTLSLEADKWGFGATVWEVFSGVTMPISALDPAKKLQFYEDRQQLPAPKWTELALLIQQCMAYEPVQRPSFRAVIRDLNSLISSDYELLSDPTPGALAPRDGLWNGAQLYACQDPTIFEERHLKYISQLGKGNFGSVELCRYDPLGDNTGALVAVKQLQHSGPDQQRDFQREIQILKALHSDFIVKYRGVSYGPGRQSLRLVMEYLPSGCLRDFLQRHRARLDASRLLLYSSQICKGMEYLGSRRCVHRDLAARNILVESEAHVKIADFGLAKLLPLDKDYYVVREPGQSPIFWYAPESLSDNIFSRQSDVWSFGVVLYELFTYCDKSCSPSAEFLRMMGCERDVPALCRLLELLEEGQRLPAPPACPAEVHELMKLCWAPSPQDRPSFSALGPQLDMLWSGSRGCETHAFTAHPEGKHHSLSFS

[3] = molecular target: T2, MYLK4 (Homo sapiens, UniProt Q86YV6); conditions: 1 μM; Run 1, Run 2
T2 sequence (Q86YV6 1-388): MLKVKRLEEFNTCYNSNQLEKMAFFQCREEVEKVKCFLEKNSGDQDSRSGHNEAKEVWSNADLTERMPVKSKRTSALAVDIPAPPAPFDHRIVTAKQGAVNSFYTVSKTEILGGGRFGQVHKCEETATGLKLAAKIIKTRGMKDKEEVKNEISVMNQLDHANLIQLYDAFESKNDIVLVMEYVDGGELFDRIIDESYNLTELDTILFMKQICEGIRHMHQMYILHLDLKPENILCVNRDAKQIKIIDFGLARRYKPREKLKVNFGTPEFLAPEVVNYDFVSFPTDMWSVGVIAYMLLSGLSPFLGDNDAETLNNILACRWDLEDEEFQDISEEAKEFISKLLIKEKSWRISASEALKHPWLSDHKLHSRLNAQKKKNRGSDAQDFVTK

[4] = system: TGFBR2
[5] = molecular target: FAK/PTK2 (Homo sapiens, UniProt Q05397); conditions: 1 μM; Run 1, Run 2
[6] = molecular target: PLK3 (Homo sapiens, UniProt Q9H4B4); test: biochemical; conditions: read-out: % enzyme activity, 1 μM; Run 1, Run 2
[7] = molecular target: T3, MST2/STK3 (Homo sapiens, UniProt Q13188); conditions: 1 μM; Run 1, Run 2
T3 sequence (Q13188 1-491): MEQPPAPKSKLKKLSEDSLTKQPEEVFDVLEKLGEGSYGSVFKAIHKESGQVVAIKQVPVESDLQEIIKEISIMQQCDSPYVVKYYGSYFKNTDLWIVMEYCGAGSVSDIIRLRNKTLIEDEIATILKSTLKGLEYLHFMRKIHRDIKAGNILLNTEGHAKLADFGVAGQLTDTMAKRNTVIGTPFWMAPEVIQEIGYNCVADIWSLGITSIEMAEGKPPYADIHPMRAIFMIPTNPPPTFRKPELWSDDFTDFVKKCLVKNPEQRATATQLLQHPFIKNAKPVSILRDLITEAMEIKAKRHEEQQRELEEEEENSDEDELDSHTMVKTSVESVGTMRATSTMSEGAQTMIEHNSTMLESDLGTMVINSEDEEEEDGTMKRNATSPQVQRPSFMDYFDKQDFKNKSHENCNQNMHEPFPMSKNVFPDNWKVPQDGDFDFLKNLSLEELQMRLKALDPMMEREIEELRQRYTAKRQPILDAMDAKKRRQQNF

[8] = molecular target: T4, Aurora C (Homo sapiens, UniProt Q9UQB9); conditions: 1 μM; Run 1, Run 2
T4 sequence (Q9UQB9 1-309): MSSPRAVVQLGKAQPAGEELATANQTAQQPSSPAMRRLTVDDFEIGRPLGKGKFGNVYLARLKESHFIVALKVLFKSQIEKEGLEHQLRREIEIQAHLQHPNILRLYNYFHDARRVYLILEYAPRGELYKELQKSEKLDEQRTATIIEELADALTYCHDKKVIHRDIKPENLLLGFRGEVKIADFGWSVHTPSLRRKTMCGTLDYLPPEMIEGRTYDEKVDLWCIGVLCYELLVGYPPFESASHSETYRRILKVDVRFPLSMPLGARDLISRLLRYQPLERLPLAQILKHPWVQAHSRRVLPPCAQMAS

[9] = molecular target: CDK19/cyclin C (Homo sapiens, UniProt Q9BWU1); conditions: 1 μM; Run 1, Run 2
[10] = molecular target: ABL1 (Homo sapiens, UniProt P00519); conditions: 1 μM; Run 1, Run 2
[11] = molecular target: BTK (Homo sapiens, UniProt Q06187); conditions: 1 μM; Run 1, Run 2
[12] = molecular target: DYRK1/DYRK1A (Homo sapiens, UniProt Q13627); conditions: 1 μM; Run 1, Run 2

Chain of FAK/PTK2 (Q05397 whole entry): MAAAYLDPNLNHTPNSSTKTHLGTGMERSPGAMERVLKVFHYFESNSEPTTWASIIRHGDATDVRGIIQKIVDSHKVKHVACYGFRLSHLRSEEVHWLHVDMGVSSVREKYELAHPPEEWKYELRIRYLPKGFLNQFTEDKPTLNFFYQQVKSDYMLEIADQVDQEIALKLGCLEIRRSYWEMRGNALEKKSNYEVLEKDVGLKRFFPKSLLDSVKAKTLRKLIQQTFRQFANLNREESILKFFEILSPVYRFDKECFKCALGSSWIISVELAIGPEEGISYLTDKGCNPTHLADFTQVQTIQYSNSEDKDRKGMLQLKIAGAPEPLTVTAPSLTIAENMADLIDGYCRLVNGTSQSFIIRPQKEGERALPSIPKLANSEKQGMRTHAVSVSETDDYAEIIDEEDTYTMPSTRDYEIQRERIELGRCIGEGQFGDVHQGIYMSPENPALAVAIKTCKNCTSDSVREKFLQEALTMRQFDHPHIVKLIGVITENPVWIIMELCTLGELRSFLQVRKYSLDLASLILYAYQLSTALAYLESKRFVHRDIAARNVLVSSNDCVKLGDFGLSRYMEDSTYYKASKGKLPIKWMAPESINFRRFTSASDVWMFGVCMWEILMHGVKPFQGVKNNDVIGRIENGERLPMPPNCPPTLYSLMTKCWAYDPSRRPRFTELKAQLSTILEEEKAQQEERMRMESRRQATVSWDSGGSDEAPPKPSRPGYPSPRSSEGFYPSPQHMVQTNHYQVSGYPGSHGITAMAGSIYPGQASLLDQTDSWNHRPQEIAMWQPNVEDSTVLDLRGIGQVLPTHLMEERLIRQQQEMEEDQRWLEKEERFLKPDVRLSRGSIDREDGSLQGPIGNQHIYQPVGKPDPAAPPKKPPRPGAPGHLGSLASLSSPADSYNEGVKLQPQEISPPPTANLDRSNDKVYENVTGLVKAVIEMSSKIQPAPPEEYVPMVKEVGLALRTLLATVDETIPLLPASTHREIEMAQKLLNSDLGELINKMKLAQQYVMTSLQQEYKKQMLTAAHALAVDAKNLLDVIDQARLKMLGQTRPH
Chain of CAMK4 (Q16566 whole entry): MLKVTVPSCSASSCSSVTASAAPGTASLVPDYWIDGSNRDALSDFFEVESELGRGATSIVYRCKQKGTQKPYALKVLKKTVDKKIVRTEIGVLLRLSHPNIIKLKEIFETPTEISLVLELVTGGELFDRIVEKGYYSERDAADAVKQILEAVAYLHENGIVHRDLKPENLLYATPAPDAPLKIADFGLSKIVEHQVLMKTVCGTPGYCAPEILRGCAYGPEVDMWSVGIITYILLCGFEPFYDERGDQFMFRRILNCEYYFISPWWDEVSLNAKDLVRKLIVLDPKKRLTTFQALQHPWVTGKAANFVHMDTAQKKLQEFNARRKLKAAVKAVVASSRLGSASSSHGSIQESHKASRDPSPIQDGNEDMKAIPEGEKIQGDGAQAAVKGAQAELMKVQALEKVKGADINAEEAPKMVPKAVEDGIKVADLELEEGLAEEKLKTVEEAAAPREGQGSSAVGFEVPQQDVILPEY
Chain of ABL1 (P00519 whole entry): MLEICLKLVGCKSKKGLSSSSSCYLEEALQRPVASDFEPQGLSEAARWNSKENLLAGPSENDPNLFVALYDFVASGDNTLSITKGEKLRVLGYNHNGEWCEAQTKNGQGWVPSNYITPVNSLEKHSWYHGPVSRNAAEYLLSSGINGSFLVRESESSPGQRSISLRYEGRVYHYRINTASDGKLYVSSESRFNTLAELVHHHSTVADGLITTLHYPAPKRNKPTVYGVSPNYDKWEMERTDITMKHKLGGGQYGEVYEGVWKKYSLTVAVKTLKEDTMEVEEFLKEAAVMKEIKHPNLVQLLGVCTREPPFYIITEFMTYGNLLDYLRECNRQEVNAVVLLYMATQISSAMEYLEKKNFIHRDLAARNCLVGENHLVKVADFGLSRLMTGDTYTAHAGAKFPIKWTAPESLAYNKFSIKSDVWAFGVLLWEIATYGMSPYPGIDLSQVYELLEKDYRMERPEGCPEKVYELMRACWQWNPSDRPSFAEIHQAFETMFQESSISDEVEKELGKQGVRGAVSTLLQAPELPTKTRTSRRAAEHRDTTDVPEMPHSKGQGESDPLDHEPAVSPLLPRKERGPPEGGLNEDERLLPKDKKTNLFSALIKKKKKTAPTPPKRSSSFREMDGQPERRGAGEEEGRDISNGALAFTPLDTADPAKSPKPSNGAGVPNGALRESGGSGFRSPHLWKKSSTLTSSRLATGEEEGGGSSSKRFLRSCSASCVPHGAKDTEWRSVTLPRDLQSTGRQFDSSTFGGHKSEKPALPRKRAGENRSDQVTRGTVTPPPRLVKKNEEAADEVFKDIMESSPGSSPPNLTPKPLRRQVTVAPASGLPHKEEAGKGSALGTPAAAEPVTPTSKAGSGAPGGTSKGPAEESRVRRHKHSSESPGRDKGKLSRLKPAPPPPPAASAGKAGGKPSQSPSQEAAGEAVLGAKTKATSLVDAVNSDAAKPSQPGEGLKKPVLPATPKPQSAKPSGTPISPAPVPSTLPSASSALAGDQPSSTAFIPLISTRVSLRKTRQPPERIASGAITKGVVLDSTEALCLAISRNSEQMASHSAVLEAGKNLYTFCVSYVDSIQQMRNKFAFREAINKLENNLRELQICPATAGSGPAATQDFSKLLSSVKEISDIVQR
Chain of CDK19/cyclin C (Q9BWU1 whole entry): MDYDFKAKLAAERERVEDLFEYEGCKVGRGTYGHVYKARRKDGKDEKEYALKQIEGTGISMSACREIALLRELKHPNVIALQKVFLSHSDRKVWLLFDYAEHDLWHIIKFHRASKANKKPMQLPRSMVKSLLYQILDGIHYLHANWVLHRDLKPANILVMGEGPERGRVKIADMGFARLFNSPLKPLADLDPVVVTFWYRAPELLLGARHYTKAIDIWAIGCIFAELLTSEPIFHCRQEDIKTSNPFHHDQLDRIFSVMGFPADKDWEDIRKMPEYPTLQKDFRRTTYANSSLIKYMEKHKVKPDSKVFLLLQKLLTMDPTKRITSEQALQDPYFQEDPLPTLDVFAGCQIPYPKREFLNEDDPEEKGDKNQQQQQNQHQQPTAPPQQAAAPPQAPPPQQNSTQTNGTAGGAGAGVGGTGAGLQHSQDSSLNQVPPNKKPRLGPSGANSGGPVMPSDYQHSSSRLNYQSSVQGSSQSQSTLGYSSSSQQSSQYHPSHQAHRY
Chain of CDK19/cyclin C (P24863 whole entry partner): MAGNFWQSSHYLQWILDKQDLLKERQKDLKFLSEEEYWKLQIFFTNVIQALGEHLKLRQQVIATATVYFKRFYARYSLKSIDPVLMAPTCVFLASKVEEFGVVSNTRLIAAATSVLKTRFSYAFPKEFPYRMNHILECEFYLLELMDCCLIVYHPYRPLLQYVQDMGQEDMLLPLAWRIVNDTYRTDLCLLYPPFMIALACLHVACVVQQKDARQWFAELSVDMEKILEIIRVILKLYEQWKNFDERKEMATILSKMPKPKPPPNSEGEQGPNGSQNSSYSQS
Chain of PLK3 (Q9H4B4 whole entry): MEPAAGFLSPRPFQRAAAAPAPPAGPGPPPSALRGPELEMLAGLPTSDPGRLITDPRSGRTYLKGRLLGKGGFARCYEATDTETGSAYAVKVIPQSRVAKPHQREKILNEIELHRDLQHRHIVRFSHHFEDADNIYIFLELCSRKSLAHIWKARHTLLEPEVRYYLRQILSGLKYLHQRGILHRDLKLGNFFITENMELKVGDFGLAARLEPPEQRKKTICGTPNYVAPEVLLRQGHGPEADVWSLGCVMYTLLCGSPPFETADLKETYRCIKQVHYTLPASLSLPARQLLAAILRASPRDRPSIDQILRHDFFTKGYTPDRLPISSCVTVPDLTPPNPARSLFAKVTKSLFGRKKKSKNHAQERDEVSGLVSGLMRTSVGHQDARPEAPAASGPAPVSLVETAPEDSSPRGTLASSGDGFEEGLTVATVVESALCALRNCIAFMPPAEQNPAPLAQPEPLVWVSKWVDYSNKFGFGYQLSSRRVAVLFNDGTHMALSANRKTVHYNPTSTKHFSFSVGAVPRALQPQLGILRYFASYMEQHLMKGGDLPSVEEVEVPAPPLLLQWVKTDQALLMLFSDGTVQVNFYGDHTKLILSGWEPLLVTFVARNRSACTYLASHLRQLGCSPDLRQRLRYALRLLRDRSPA
Chain of BTK (Q06187 whole entry): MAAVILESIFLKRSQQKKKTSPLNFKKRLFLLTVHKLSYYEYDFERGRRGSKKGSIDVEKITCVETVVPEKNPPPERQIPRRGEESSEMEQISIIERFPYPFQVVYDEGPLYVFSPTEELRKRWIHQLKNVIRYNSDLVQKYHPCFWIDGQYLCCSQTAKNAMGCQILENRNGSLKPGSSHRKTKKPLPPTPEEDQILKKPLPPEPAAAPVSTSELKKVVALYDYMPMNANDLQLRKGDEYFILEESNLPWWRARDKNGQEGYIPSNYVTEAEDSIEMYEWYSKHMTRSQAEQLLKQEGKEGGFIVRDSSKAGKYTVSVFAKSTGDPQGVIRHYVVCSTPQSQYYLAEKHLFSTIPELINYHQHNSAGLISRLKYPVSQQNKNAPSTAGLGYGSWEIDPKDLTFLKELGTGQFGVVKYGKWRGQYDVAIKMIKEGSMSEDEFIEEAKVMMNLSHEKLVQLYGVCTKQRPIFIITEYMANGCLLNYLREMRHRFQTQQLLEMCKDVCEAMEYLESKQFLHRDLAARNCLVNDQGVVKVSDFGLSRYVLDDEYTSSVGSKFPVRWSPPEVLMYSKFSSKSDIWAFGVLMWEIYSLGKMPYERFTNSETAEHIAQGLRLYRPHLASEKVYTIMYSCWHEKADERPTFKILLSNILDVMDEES

Row | Structure (SMILES) | % enzyme activity [1] | remaining activity at 1 µM [2] | % enzyme activity [3] | % enzyme activity at 1 μM [4] | % enzyme activity [5] | remaining activity at 1 µM [6] | % enzyme activity [7] | % enzyme activity [8] | % enzyme activity [9] | % enzyme activity [10] | % enzyme activity [11] | % enzyme activity [12]
1 | COc1cc(-c2cncc(-c3ccc(N4CCN(C)CC4)cc3)c2C)cc(F)c1C(N)=O [Compound 26a, 2-Fluoro-6-methoxy-4-(4-methyl-5-(4-(4-methylpiperazin-1-yl)phenyl)pyridin-3-yl)benzamide] | 98.68% | 106% | 95.79% | 103% and 97.4% | 94.56% | 95% | 93.91% | 103.00% | 77.81% | 75.12% | 94.35% | 43.07%
2 | COc1cc(-c2cncc(-c3ccc(N4C[C@@H](C)N(C)[C@@H](C)C4)cc3)c2C)cc(F)c1C(N)=O [Compound 26c, 2-Fluoro-6-methoxy-4-(4-methyl-5-(4-((3R,5S)-3,4,5-trimethylpiperazin-1-yl)phenyl)pyridin-3-yl)benzamide] | 100.90% | 101% | 102.67% | 106% and 105% | 97.12% | 97.7% | 100.46% | 99.34% | 85.09% | 82.07% | 94.07% | 60.05%
